# “And” between values parts separate entries of the source, which are not always exact repeats. Identical values can stand only once.
# What was measured:
# cytochrome P450cam [1] = target: T1, cytochrome P450cam (Pseudomonas putida, UniProt P00183); conditions: cited from earlier work
# cytochrome P450cam [2] = target: T2, cytochrome P450cam (Pseudomonas putida, UniProt P00183, C335A); assay: biochemical
# Protocol: A Hewlett Packard 8452A spectrophotometer was used to collect UV-vis data. Buffer conditions were 50 mM potassium phosphate, 100 mM potassium chloride, pH 7.4 for all protein solutions (˜5 μM P450). […] Thus, affinities were determined by the ability of these complexes to inhibit the low- to high-spin transition produced by camphor. […] The concentration of ethanol never exceeded 1% of the total volume. […] Absorbance changes were recorded at 392 and 416 nm. […] By definition, KD=Kcam/KI, where Kcam is the dissociaton constant of camphor (in the absence of Ru-substrate), and KI is the equilibrium constant between camphor- and ruthenium-bound P450, spectroscopically determined by measuring the dissociation constant of camphor at multiple Ru concentrations. Luminescence experiments measure KD directly.
# cytochrome P450cam [3] = target: T1, cytochrome P450cam; conditions: for rate of hydroxylation (NADH consumption): NADH/PdR/Pd/P450, 1 μM P450, 20 °C
# Protocol: Two cycles of acetonitrile (5 mL) addition, decanting, and rotary evaporation were performed to separate the buffer salts from the ruthenated species. The ruthenium concentration was quantified by UV-vis (ε456=14,500 M^−1 cm^−1).
# Each solution was injected three different times, with intermediary blank runs of pure acetonitrile. Relative peak intensities were determined using analysis software, which deconvolved the spectra to assign one singly charged peak to each compound. […] This information was crucial in quantifying hydroxylated product yields relative to starting material in the analysis of subsequent turnover experiments.
# The oxygen electrode was calibrated at 20° C. (linear response with [O2], 0–100% O2), and connected to a LeCroy oscilloscope interfaced to a PC using freely available LeCroy software (LeCroy, Chestnut Ridge, N.Y.). The O2 electrode (3 mm diameter with Teflon casing) was pushed through a septum, which formed an airtight seal with the mouth of a standard 1 cm pathlength cuvette. […] All UV-vis experiments were conducted with stirred samples at 20° C. […] Experiments were initiated upon addition of 200 μM NADH, and absorbance at 340 nm was measured simultaneously with O2 consumption.
# The consumption of NADH was monitored at 340 nm by UV-vis spectroscopy and O2 consumption monitored with the microelectrode. Once all of the NADH was consumed, a known amount of 3-endo-bromo-camphor was added, and the mixture was extract three times with an equal volume of methylene chloride. The organic extract was concentrated by evaporation and analyzed by GC.
# iNOS = conditions: cited from earlier work
# nNOS = conditions: cited from earlier work
# eNOS = conditions: cited from earlier work
# NOS = conditions: cited from earlier work
# cytochrome P450cam [4] = target: T2, cytochrome P450cam; conditions: untethered control complexes
# Asp251Asn = Asp251Asn (Pseudomonas putida, UniProt P00183, D252N); conditions: decreases above 15° C.; cited from earlier work
# P450 [5] = target: T3, P450 (Pseudomonas putida, UniProt P00183); conditions: cited from earlier work
# T3 construct: made in house; host or cells: E. coli
# T3 sequence (P00183 1-415): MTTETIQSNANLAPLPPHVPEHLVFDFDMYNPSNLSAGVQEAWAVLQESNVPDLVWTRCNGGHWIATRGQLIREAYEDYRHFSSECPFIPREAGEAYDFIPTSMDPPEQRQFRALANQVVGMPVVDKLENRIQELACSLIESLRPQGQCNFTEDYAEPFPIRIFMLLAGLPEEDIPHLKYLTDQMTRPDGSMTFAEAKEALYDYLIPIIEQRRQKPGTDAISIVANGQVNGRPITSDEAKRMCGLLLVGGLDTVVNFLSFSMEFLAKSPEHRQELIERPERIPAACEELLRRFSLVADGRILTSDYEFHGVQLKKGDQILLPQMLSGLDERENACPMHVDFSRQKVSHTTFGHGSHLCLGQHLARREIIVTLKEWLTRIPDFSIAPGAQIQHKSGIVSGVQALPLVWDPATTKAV
# P450:Ru complex = target: T4, P450:Ru complex (Pseudomonas putida, UniProt P00183); assay: Camphor titration into stoichiometric P450:Ru—C10 (UV-vis); format: binding
# T4 construct: made in house
# T4 sequence (P00183 2-415 limits assumed): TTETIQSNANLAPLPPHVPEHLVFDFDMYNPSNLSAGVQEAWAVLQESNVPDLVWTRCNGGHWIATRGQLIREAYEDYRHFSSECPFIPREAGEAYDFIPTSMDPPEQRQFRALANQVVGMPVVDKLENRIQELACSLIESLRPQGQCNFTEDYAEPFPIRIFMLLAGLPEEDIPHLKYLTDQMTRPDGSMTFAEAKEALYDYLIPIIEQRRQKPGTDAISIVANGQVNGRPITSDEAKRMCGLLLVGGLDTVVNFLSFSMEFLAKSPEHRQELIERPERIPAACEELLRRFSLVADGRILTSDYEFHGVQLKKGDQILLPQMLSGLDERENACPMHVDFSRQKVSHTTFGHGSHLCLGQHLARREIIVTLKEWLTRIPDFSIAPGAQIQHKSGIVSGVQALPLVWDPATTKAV
# P450 [6] = target: T3, P450; assay: Steady-state luminescence of Ru-dppa probes in acetonitrile, buffer and buffer with P450; conditions: for integrated luminescence intensity with P450 as % of value in acetonitrile: buffer in the presence of P450
# Protocol: (§1) Electrospray mass spec. data was collected on a Finnigan LCQ quadrupole ion trap mass spectrometer.
# (§2) P450 was stored in small aliquots and thawed immediately before use. Samples were prepared in 50 mM Kphos buffer containing 100 mM KCl. P450 concentration was quantified using the heme soret absorption at 416.5 nm (115,000 M^−1 cm^−1). Samples were prepared in a custom quartz cuvette fitted with a Kontes Teflon stopcock. Oxygen was removed from the sample by completing at least 30 cycles of partial vacuum followed by an influx of argon.
# The luminescence of compounds 1–3 was examined in acetonitrile, potassium phosphate buffer, and buffer in the presence of P450 (as described above). […] The complexes 2 and 3 show modest recoveries of luminescence, with integrated intensities that are 2.6 and 5.2% of their values in acetonitrile (FIG. 49). The luminescence from 3 is approximately 20 fold greater in the presence of P450 than in buffer alone.
# P450cam = target: T5, P450cam (Pseudomonas putida, UniProt P00183); assay: Binding of [Ru(phen)2dppa]-adamantyl probes to P450; conditions: Example VI
# T5 construct: made in house; host or cells: E. coli
# T5 sequence (P00183 1-415): T3 sequence (P00183 1-415)
# Protocol: as §1, §2
# [7] = test system: six heme proteins (yeast cytochrome c, horse skeletal muscle myoglobin, bovine lipase cytochrome b5, bovine liver catalase, recombinant yeast cytochrome c …); assay: Emission decay of Ru-substrate in presence of other heme proteins; conditions: […] Ru—C9-Ad, 50 mM sodium phosphate pH 7; monophasic = no binding
molecule,measurement,setting,value
NC(=O)CC12CC3CC(CC(C3)C1)C2 [1-adamantylacetamide],"rate of hydroxylation, literature value",cytochrome P450cam [1]; literature,~110 μmol NADH/min/μmol P450
NC(=O)CC1C2CC3CC(C2)CC1C3 (stereo not shown) [2-adamantylacetamide],spin conversion at the heme,cytochrome P450cam [2],full low to high spin conversion
same,conversion of heme to high-spin species on binding,cytochrome P450cam [2]; ferric-aquo P450,95%
same,yield of hydroxylated product based on NADH (product formation/NADH consumption),cytochrome P450cam [3],47±3%
same,rate of hydroxylation (NADH consumption),cytochrome P450cam [3],90±20 μmol NADH/min/μmol P450
CC(=N)NCc1cccc(CN)c1 [1400W],type of inhibition,iNOS,irreversible inhibitor
same,type of inhibition,nNOS,"weak, reversible inhibitor"
same,type of inhibition,eNOS,"weak, reversible inhibitor"
"N=C(NCCC[C@H](N)C(=O)O)N[N+](=O)[O-] [NMA, N^ω-nitro-arginine]",inhibition of NOS,NOS,"good, but non-specific inhibitor"
"[Cl-].[Cl-].[Ru+2].c1ccc(-c2ccccn2)nc1.c1ccc(-c2ccccn2)nc1.c1ccc(-c2ccccn2)nc1 [[Ru(bpy)3]^2+, Tris(2,2′-bipyridine)ruthenium(II) chloride]",quenching upon addition of P450,cytochrome P450cam [4],not quenched
CC12CCC(CC1=O)C2(C)C (stereo not shown) [camphor],"association constant for camphor (In Keq), Asp251Asn",Asp251Asn,~14.2
same,coupling of hydroxylation reaction,cytochrome P450cam [1],~100%
same,Kd,"cytochrome P450cam [2]; dissociation constant of camphor (KS, Kcam), P450 alone, no Ru-substrate, 50 mM potassium phosphate, 100 mM KCl, pH 7.4, 20 °C",3 µM and 3.1 µM
same,rate of hydroxylation (NADH consumption),cytochrome P450cam [3],~600 μmol NADH/min/μmol P450
same,Kd,"P450 [5]; comparison value, read-out: KD of camphor (natural substrate)",~1 µM and 1.6 µM
same,"association constant for camphor (In Keq), WT P450",P450 [5]; decreases below 15° C.,~14.2
same,Kd,P450:Ru complex,3.6 ± 0.2 µM
D-Phe-D-ArgNO2—OMe,Kd,iNOS,3600 µM
same,dissociation constant,nNOS,micromolar
same,dissociation constant,eNOS,micromolar
Ru(phen)2dppa-C6-Ad [compound 1],luminescence increase over background,P450 [6],did not show a significant increase in luminescence
same,Kd,P450cam,0.25 µM
Ru(phen)2dppa-adm [compound 3],quantum yield bound to P450,P450 [6]; based on reported quantum yield of [Ru(phen)2dppz]2+ in aerated acetonitrile,0.00038
same,integrated luminescence intensity with P450 as % of value in acetonitrile,P450 [6],5.2%
same,Kd,P450cam,0.18 µM
Ru(phen)2dppa-gly-adm [compound 2],integrated luminescence intensity with P450 as % of value in acetonitrile,P450 [6],2.6%
same,Kd,P450cam,2.4 µM
[Ru(bpy)2(bpy-C9-Ad)]Cl2 [Ru—C9-Ad],emission decay profile in presence of six heme proteins,[7],monophasic
same,effective product yield based on background oxidase activity,cytochrome P450cam [3],40%
same,yield of hydroxylated product based on NADH (product formation/NADH consumption),cytochrome P450cam [3],10%
same,rate of hydroxylation (NADH consumption),cytochrome P450cam [3],10±2 μmol NADH/min/μmol P450 and 8 μmol NADH/min/μmol P450

# Reference: patent publication US7105310B1, “Detection of biomolecules by sensitizer-linked substrates” (California Institute of Technology, priority 2000, dated 2006)
